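96-well plates; 48 h exposure; 5 concentrations. Endpoints by linear interpolation between flanking doses. Not reached: highest tested concentration assigned. Abbreviation: GI50, concentration required for 50% inhibition of growth.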 Activity calls are given as the source filed them. Rule as the data show it: active = GI50 up to about 1.1 µM and inactive = higher.
Experiments:
Assay in all cases: DTP human tumour cell line panel, 48 h
SF-539 = system: SF-539
NCI-H522 = system: NCI-H522
MDA-MB-231 = system: MDA-MB-231
T47D = system: T47D
U-251 = system: U-251
OVCAR-8 = system: OVCAR-8
SNB-19 = system: SNB-19
MDA-MB-435 = system: MDA-MB-435
SNB-75 = system: SNB-75
NCI/ADR-RES = system: NCI/ADR-RES
SK-MEL-28 = system: SK-MEL-28
BT-549 = system: BT-549
HCT-15 = system: HCT-15
EKVX = system: EKVX
HOP-92 = system: HOP-92
OVCAR-3 = system: OVCAR-3
NCI-H23 = system: NCI-H23

`CCOC(=O)C(NC(=O)c1cccc(Cl)c1)(Nc1cccc(C)c1)C(F)(F)F` (configuration not stated) was tested, and the GI50 (SF-539) was 17.9 µM (inactive), the GI50 (NCI-H522) was 5.26 µM (inactive) and the GI50 (MDA-MB-231) was 19.4 µM (inactive). For the same molecule, the GI50 (T47D) was 19 µM (inactive), the GI50 (U-251) was 23.8 µM (inactive) and the GI50 (OVCAR-8) was 21.2 µM (inactive). The GI50 (SNB-19) was 35.9 µM (inactive), the GI50 (MDA-MB-435) was 19.6 µM (inactive) and the GI50 (SNB-75) was 12.4 µM (inactive). The GI50 (NCI/ADR-RES) was 15.9 µM (inactive), the GI50 (SK-MEL-28) was 17.4 µM (inactive) and the GI50 (BT-549) was 13 µM (inactive). The GI50 (HCT-15) was 16.7 µM, the GI50 (EKVX) was 18.7 µM (inactive) and the GI50 (HOP-92) was 15 µM (inactive).

In the case of `O=C(O)CCN1CCN(CCC(=O)O)CCN(CCC(=O)O)CC1`, the GI50 (SF-539) is reported as > 100 µM (inactive), the GI50 (NCI-H522) is reported as > 100 µM (inactive) and the GI50 (MDA-MB-231) is reported as > 100 µM (inactive). For the same molecule, the GI50 (T47D) was > 100 µM (inactive), the GI50 (U-251) was > 100 µM (inactive) and the GI50 (OVCAR-8) was > 100 µM (inactive). For the same molecule, the GI50 (SNB-19) was > 100 µM (inactive), the GI50 (MDA-MB-435) was > 100 µM (inactive) and the GI50 (SNB-75) was 45.8 µM (inactive). The GI50 (NCI/ADR-RES) was > 100 µM (inactive), the GI50 (SK-MEL-28) was > 100 µM (inactive) and the GI50 (BT-549) was > 100 µM (inactive). The GI50 (HCT-15) was 91.2 µM, the GI50 (OVCAR-3) was > 100 µM (inactive) and the GI50 (EKVX) was > 100 µM (inactive). The GI50 (HOP-92) was > 100 µM (inactive).

For `CC[C@@H]1/C=C/C=C/C[C@H](C)[C@@H](O)[C@](C)(O)C(=O)[C@H](C)[C@@H](O)[C@H](C)C(=O)[C@H](C)[C@@H](O)[C@H](C)/C=C/C(=O)O[C@H]2[C@@H](C)[C@@H](CC1)O[C@]1(O[C@H](CC(C)O)[C@H](C)CC1=O)[C@@H]2C` (some centres not stated), the GI50 (SF-539) was 4.41 µM (inactive), the GI50 (NCI-H522) was < 0.0025 µM (active) and the GI50 (MDA-MB-231) was 3.72 µM (inactive). The GI50 (T47D) was < 0.0025 µM (active), the GI50 (U-251) was < 0.0025 µM (active) and the GI50 (OVCAR-8) was < 0.0025 µM (active). The GI50 (SNB-19) was < 0.0025 µM (active), the GI50 (MDA-MB-435) was 3.26 µM (inactive) and the GI50 (SNB-75) was 0.871 µM (active). For the same molecule, the GI50 (NCI/ADR-RES) was 0.598 µM (active), the GI50 (SK-MEL-28) was 6 µM (inactive) and the GI50 (BT-549) was 3.75 µM (inactive). The GI50 (NCI-H23) was < 0.0025 µM (active), the GI50 (HCT-15) was 3.28 µM and the GI50 (OVCAR-3) was 2.92 µM (inactive). For the same molecule, the GI50 (EKVX) was < 0.0025 µM (active) and the GI50 (HOP-92) was 4.23 µM (inactive).

For `c1ccc(-c2cc(-c3ccccc3)nc(-c3ccncc3)c2)cc1`, the GI50 (NCI-H522) was > 100 µM (inactive), the GI50 (MDA-MB-231) was 97.5 µM (inactive) and the GI50 (T47D) was > 100 µM (inactive). For the same molecule, the GI50 (U-251) was 37.6 µM (inactive), the GI50 (OVCAR-8) was > 100 µM (inactive) and the GI50 (SNB-19) was 53.8 µM (inactive). For the same molecule, the GI50 (MDA-MB-435) was > 100 µM (inactive), the GI50 (NCI/ADR-RES) was > 100 µM (inactive) and the GI50 (SK-MEL-28) was > 100 µM (inactive). The GI50 (BT-549) was > 100 µM (inactive), the GI50 (NCI-H23) was 91.4 µM (inactive) and the GI50 (HCT-15) was greater than 100 µM. The GI50 (OVCAR-3) was > 100 µM (inactive) and the GI50 (EKVX) was > 100 µM (inactive).

`COc1ccc(/N=N/C(=O)NC(CC(C)C)C(=O)NCC(=O)O)cc1` (configuration not stated) was tested, and the GI50 (SF-539) was 4.18 µM (inactive), the GI50 (NCI-H522) was 22.5 µM (inactive) and the GI50 (MDA-MB-231) was > 58.2 µM (inactive). For the same molecule, the GI50 (T47D) was 3.03 µM (inactive), the GI50 (U-251) was > 100 µM (inactive) and the GI50 (OVCAR-8) was 21.3 µM (inactive). For the same molecule, the GI50 (SNB-19) was > 92.5 µM (inactive), the GI50 (MDA-MB-435) was 1.5 µM (inactive) and the GI50 (SNB-75) was 89.5 µM (inactive). For the same molecule, the GI50 (NCI/ADR-RES) was 19.5 µM (inactive), the GI50 (SK-MEL-28) was 57.7 µM (inactive) and the GI50 (BT-549) was > 38.7 µM (inactive). For the same molecule, the GI50 (NCI-H23) was 57.3 µM (inactive), the GI50 (HCT-15) was 1.46 µM and the GI50 (OVCAR-3) was 19.8 µM (inactive). For the same molecule, the GI50 (EKVX) was 43.4 µM (inactive) and the GI50 (HOP-92) was > 100 µM (inactive).

With `C1=C2C3=[N+](CCCC3)CC2Cc2ccsc21` (configuration not stated) the GI50 (NCI-H522) was 62.8 µM (inactive), the GI50 (MDA-MB-231) was > 100 µM (inactive) and the GI50 (T47D) was 22.8 µM (inactive). For the same molecule, the GI50 (U-251) was 28.7 µM (inactive), the GI50 (OVCAR-8) was 82.6 µM (inactive) and the GI50 (SNB-19) was 56.2 µM (inactive). The GI50 (MDA-MB-435) was > 100 µM (inactive), the GI50 (SNB-75) was 93.8 µM (inactive) and the GI50 (NCI/ADR-RES) was > 100 µM (inactive). For the same molecule, the GI50 (SK-MEL-28) was > 100 µM (inactive), the GI50 (BT-549) was 81.3 µM (inactive) and the GI50 (NCI-H23) was > 100 µM (inactive). The GI50 (HCT-15) was greater than 100 µM, the GI50 (OVCAR-3) was 84.1 µM (inactive) and the GI50 (EKVX) was 52.6 µM (inactive). The GI50 (HOP-92) was 69.5 µM (inactive).

For `C1C2CC3CC1CC(Nc1nc(NC45CC6CC(CC(C6)C4)C5)nc(NC45CC6CC(CC(C6)C4)C5)n1)(C2)C3`, the GI50 (SF-539) was > 100 µM (inactive), the GI50 (MDA-MB-231) was > 100 µM (inactive) and the GI50 (T47D) was 72.1 µM (inactive). The GI50 (U-251) was 43.8 µM (inactive), the GI50 (OVCAR-8) was > 26 µM (inactive) and the GI50 (SNB-19) was 43.5 µM (inactive). For the same molecule, the GI50 (MDA-MB-435) was > 56.4 µM (inactive), the GI50 (SNB-75) was 16.9 µM (inactive) and the GI50 (NCI/ADR-RES) was 9.31 µM (inactive). The GI50 (SK-MEL-28) was > 31.1 µM (inactive), the GI50 (BT-549) was > 68.2 µM (inactive) and the GI50 (NCI-H23) was > 43.9 µM (inactive). For the same molecule, the GI50 (HCT-15) was 62.1 µM, the GI50 (OVCAR-3) was > 23.6 µM (inactive) and the GI50 (EKVX) was > 43.5 µM (inactive). For the same molecule, the GI50 (HOP-92) was > 100 µM (inactive).

In the case of `COC(=O)[C@H](Cc1c[nH]c2ccccc12)NP(=O)(O)OC[C@H]1O[C@@H](n2cc(C)c(=O)[nH]c2=O)C[C@@H]1N=[N+]=[N-]`, the GI50 (NCI-H522) is reported as > 100 µM (inactive), the GI50 (MDA-MB-231) is reported as > 100 µM (inactive) and the GI50 (T47D) is reported as > 100 µM (inactive). The GI50 (U-251) was > 100 µM (inactive), the GI50 (OVCAR-8) was > 100 µM (inactive) and the GI50 (SNB-19) was > 100 µM (inactive). The GI50 (MDA-MB-435) was > 100 µM (inactive), the GI50 (SNB-75) was > 100 µM (inactive) and the GI50 (NCI/ADR-RES) was > 100 µM (inactive). The GI50 (BT-549) was > 100 µM (inactive), the GI50 (NCI-H23) was > 100 µM (inactive) and the GI50 (HCT-15) was greater than 100 µM. For the same molecule, the GI50 (OVCAR-3) was > 100 µM (inactive), the GI50 (EKVX) was > 100 µM (inactive) and the GI50 (HOP-92) was > 100 µM (inactive).

For `O=C1Nc2ccccc2/C1=N/Nc1ccccc1[N+](=O)[O-]`, the GI50 (SF-539) was 9.89 µM (inactive), the GI50 (NCI-H522) was 21.8 µM (inactive) and the GI50 (MDA-MB-231) was 28.4 µM (inactive). The GI50 (T47D) was 38.5 µM (inactive), the GI50 (U-251) was 15.5 µM (inactive) and the GI50 (OVCAR-8) was 23.3 µM (inactive). The GI50 (SNB-19) was 48.5 µM (inactive), the GI50 (MDA-MB-435) was > 100 µM (inactive) and the GI50 (SNB-75) was 16.5 µM (inactive). For the same molecule, the GI50 (NCI/ADR-RES) was 17 µM (inactive), the GI50 (SK-MEL-28) was 75.9 µM (inactive) and the GI50 (BT-549) was 49.1 µM (inactive). The GI50 (NCI-H23) was 16.3 µM (inactive), the GI50 (HCT-15) was 55.5 µM and the GI50 (OVCAR-3) was 10.5 µM (inactive). The GI50 (EKVX) was 0.706 µM (active).

From ChEMBL document CHEMBL1201862, “PubChem BioAssay data set” (2004)
